Results taken from patent publication US5149707A, “1-((2-fluorophenyl)(4-fluorophenyl)phenylmethyl)-1H-imidazole useful as antifungal agent” (J. Uriach & Cia, S.A., priority 1988, dated 1992).
In brackets after ≈: the same amount, converted by molar mass.

Key:
Assay type in all cases: cell-based
Aspergillus flavus = assay: In vitro antifungal activity (MIC), agar dilution
Method: (§1) The antifungal activity of 1-[(2-fluorophenyl)(4-fluorophenyl)phenylmethyl]-1H-imidazole was shown by its ability to inhibit the growth of different species of yeast and filamentous fungi in vitro. The activity was recorded as the MIC value, that is, the minimum amount of product needed to achieve the complete inhibition of the in vitro growth of the test organism. Testing was performed as follows: a solution of the antifungal agent in ethanol was diluted with DST agar (pH 6.5) or Emmon's Sabouraud dextrose agar to obtain concentrations between 10 and 0.01 mcg/ml, or 80 and 0.16 mcg/m, respectively. The inoculum was standarized in order 1×10^5 cfu/ml, and 10 mcl of each organism was seeded into the agar surface. Incubation was then allowed at 30° C. during 3 days (DST) or 2 days (Emmon's) for yeasts and 10 days for filamentous fungi. Following incubation, the zones of inhibition were measured and compared to an inoculated, drug-free control to yield the MIC value.

Aspergillus niger = assay: In vitro antifungal activity (MIC), agar dilution
Method: as §1

C. albicans ATCC 10231 = assay: In vitro antifungal activity (MIC), agar dilution; settings: Candida albicans
Method: as §1

C. albicans ATCC 28516 = assay: In vitro antifungal activity (MIC), agar dilution; settings: Candida albicans
Method: as §1

C. albicans serotipo B = assay: In vitro antifungal activity (MIC), agar dilution; settings: Candida albicans
Method: as §1

[1] = test system: C. guilliermondii (clinica); assay: In vitro antifungal activity (MIC), agar dilution; settings: Meyerozyma guilliermondii
Method: as §1

[2] = test system: C. guilliermondii SQ 2210; assay: In vitro antifungal activity (MIC), agar dilution; settings: Meyerozyma guilliermondii
Method: as §1

[3] = test system: Microsporum audouini ATCC 9079; assay: In vitro antifungal activity (MIC), agar dilution
Method: as §1

Rhodotorula rubra = assay: In vitro antifungal activity (MIC), agar dilution
Method: as §1

T. glabrata (clinica) = assay: In vitro antifungal activity (MIC), agar dilution; settings: Nakaseomyces glabratus
Method: as §1

[4] = test system: T. mentagrophytes (clinica) (1); assay: In vitro antifungal activity (MIC), agar dilution; settings: Trichophyton mentagrophytes
Method: as §1

[5] = test system: T. mentagrophytes (clinica) (3); assay: In vitro antifungal activity (MIC), agar dilution; settings: Trichophyton mentagrophytes
Method: as §1

[6] = test system: T. mentagrophytes (clinica) (4); assay: In vitro antifungal activity (MIC), agar dilution; settings: Trichophyton mentagrophytes
Method: as §1

[7] = test system: T. mentagrophytes ATCC 9129; assay: In vitro antifungal activity (MIC), agar dilution
Method: as §1

[8] = test system: T. mentagrophytes ATCC 9972; assay: In vitro antifungal activity (MIC), agar dilution; settings: Trichophyton mentagrophytes
Method: as §1

C. albicans = assay: MIC distribution, serial dilutions in Sabouraud gentamycin broth, microplates; settings: # of strains = 50
Method: (§2) The antifungal activity of 1-[(2-fluorophenyl)(4-fluorophenyl)phenylmethyl]-1H-imidazole and bifonazole was determined by serial dilutions in Sabouraud gentamycin broth using microplates. The antifungal agent was diluted in 50% ethanol to obtain concentrations between 40 and 0.015 mcg/ml. Inoculum was 10^7 cfu/ml for yeast and 10^6 cfu/ml for dermatophytes. Incubation was allowed at 37° C. during 2 days for yeasts, and at 29° C. during 7 days for dermatophytes. MIC's were determined as in example 18. The MIC distributions obtained in 9 organisms are shown in the next tables.

C. guilliermondii = assay: as above; settings: MIC column 40 (first); # of strains = 5
Method: as §2

C. krusei = assay: as above; settings: # of strains = 5
Method: as §2

C. parapsilosis = assay: as above; settings: # of strains 10 = UR-4056/14 = Bifonazole
Method: as §2

C. tropicalis = assay: as above; settings: # of strains = 30
Method: as §2

M. canis = assay: as above; settings: # of strains = 13
Method: as §2

T. glabrata = assay: as above; settings: # of strains = 10 = UR-4056/15 Bifonzaole
Method: as §2

T. mentagrohytes = assay: as above; settings: # of strains = 17
Method: as §2

T. rubrum = assay: as above; settings: # of strains = 6
Method: as §2

[9] = Emmon's Sabouraud dextrose agar

c1ccc(-c2ccc(C(c3ccccc3)n3ccnc3)cc2)cc1 (stereo not drawn) [Bifonazole, 1-[(4-biphenyl)-phenylmethyl]-1H-imidazole, reference compound]
MIC (Aspergillus flavus; DST agar): 10 µg/mL (≈ 32.2 µM)
MIC (Aspergillus flavus; [9]): 80 µg/mL (≈ 258 µM)
MIC (Aspergillus niger; DST agar): 0.1 µg/mL (≈ 0.322 µM)
MIC (Aspergillus niger; [9]): 2.5 µg/mL (≈ 8.05 µM)
MIC (C. albicans ATCC 10231; ATCC10231, DST agar): 1 µg/mL (≈ 3.22 µM)
MIC (C. albicans ATCC 10231; ATCC10231, Emmon's Sabouraud dextrose agar): 0.63 µg/mL (≈ 2.03 µM)
MIC (C. albicans ATCC 28516; ATCC28516, DST agar): 2.5 µg/mL (≈ 8.05 µM)
MIC (C. albicans ATCC 28516; ATCC28516, Emmon's Sabouraud dextrose agar): 0.63 µg/mL (≈ 2.03 µM)
MIC (C. albicans serotipo B; DST agar): 10 µg/mL (≈ 32.2 µM)
MIC (C. albicans serotipo B; [9]): 20 µg/mL (≈ 64.4 µM)
MIC [1, 9]: 40 µg/mL (≈ 129 µM)
MIC ([1]; DST agar): 10 µg/mL (≈ 32.2 µM)
MIC ([2]; SQ2210, DST agar): 10 µg/mL (≈ 32.2 µM)
MIC ([2]; SQ2210, Emmon's Sabouraud dextrose agar): 5 µg/mL (≈ 16.1 µM)
MIC ([3]; ATCC9079, DST agar): 0.05 µg/mL (≈ 0.161 µM)
MIC ([3]; ATCC9079, Emmon's Sabouraud dextrose agar): 5 µg/mL (≈ 16.1 µM)
MIC (Rhodotorula rubra; DST agar): 0.05 µg/mL (≈ 0.161 µM)
MIC (Rhodotorula rubra; [9]): 0.04 µg/mL (≈ 0.129 µM)
MIC (T. glabrata (clinica); DST agar): 0.05 µg/mL (≈ 0.161 µM)
MIC (T. glabrata (clinica); [9]): 0.16 µg/mL (≈ 0.515 µM)
MIC ([4]; DST agar): 0.5 µg/mL (≈ 1.61 µM)
MIC [4, 9]: 5 µg/mL (≈ 16.1 µM)
MIC ([5]; DST agar): 1 µg/mL (≈ 3.22 µM)
MIC [5, 9]: 5 µg/mL (≈ 16.1 µM)
MIC ([6]; DST agar): 0.5 µg/mL (≈ 1.61 µM)
MIC [6, 9]: 5 µg/mL (≈ 16.1 µM)
MIC [7, 9]: 2.50 µg/mL (≈ 8.05 µM)
MIC ([7]; Trichophyton mentagrophytes, ATCC9129): 2.5 µg/mL (≈ 8.05 µM)
MIC ([8]; ATCC9972, DST agar): 1 µg/mL (≈ 3.22 µM)
MIC ([8]; ATCC9972, Emmon's Sabouraud dextrose agar): 5 µg/mL (≈ 16.1 µM)
MIC Distribution (number of strains) (C. albicans; MIC 2.5): 6 # of strains
MIC Distribution (number of strains) (C. albicans; MIC 5.0): 28 # of strains
MIC Distribution (number of strains) (C. albicans; MIC column 10): 11 # of strains
MIC Distribution (number of strains) (C. albicans; MIC column 20): 1 # of strains
MIC Distribution (number of strains) (C. albicans; MIC column 40 (first)): 4 # of strains
MIC Distribution (number of strains) (C. guilliermondii): 5 # of strains
MIC Distribution (number of strains) (C. krusei; MIC 2.5): 1 # of strains
MIC Distribution (number of strains) (C. krusei; MIC column 10): 1 # of strains
MIC Distribution (number of strains) (C. krusei; MIC column 40 (first)): 3 # of strains
MIC Distribution (number of strains) (C. parapsilosis; MIC 0.6): 1 # of strains
MIC Distribution (number of strains) (C. parapsilosis; MIC 5.0): 1 # of strains
MIC Distribution (number of strains) (C. parapsilosis; MIC column 10): 2 # of strains
MIC Distribution (number of strains) (C. parapsilosis; MIC column 40 (first)): 10 # of strains
MIC Distribution (number of strains) (C. tropicalis; MIC 5.0): 2 # of strains
MIC Distribution (number of strains) (C. tropicalis; MIC column 10): 1 # of strains
MIC Distribution (number of strains) (C. tropicalis; MIC column 40 (first)): 27 # of strains
MIC Distribution (number of strains) (M. canis; MIC 0.038): 1 # of strains
MIC Distribution (number of strains) (M. canis; MIC 2.5): 4 # of strains
MIC Distribution (number of strains) (M. canis; MIC 5.0): 5 # of strains
MIC Distribution (number of strains) (M. canis; MIC column 0.078): 1 # of strains
MIC Distribution (number of strains) (M. canis; MIC column 1.2): 2 # of strains
MIC Distribution (number of strains) (T. glabrata; MIC 0.15): 1 # of strains
MIC Distribution (number of strains) (T. glabrata; MIC 0.6): 1 # of strains
MIC Distribution (number of strains) (T. glabrata; MIC 2.5): 3 # of strains
MIC Distribution (number of strains) (T. glabrata; MIC 5.0): 5 # of strains
MIC Distribution (number of strains) (T. glabrata; MIC column 10): 3 # of strains
MIC Distribution (number of strains) (T. glabrata; MIC column 40 (first)): 2 # of strains
MIC Distribution (number of strains) (T. mentagrohytes; MIC 0.038): 1 # of strains
MIC Distribution (number of strains) (T. mentagrohytes; MIC 0.6): 1 # of strains
MIC Distribution (number of strains) (T. mentagrohytes; MIC 2.5): 5 # of strains
MIC Distribution (number of strains) (T. mentagrohytes; MIC column 1.2): 10 # of strains
MIC Distribution (number of strains) (T. rubrum; MIC 0.038): 2 # of strains
MIC Distribution (number of strains) (T. rubrum; MIC 0.3): 1 # of strains
MIC Distribution (number of strains) (T. rubrum; MIC 0.6): 1 # of strains
MIC Distribution (number of strains) (T. rubrum; MIC 5.0): 1 # of strains
MIC Distribution (number of strains) (T. rubrum; MIC column 1.2): 1 # of strains
